Laboratory results from patent US10690683B2, “Methods of use for intermediate filament protein probes” (University of Connecticut, priority 2016, dated 2020).

Assays:
[1] = test system: BHK-21 cells (mitochondrial movements); test: Nocodazole treatment, time-lapse live imaging of BHK-21 cells with MitoTracker dye and WFA-Verde; type: cell-based, hamster; details: 10 μM Nocodazole
Description: BHK-21 cells were cultured in glass bottom plates and treated with MitoTracker® dye alone or separately with 10 μM Nocodazole. […] Time-lapse images were collected every 5 seconds in each of the four treatment groups.

[2] = test system: vimentin and GFAP; details: laser injured mice, day 7, 1 μM intraperitoneal, sacrificed 24 h later
From the text: Mice of both sexes were anesthetized and subjected to 4 equally spaced laser burns focused on the retinal pigment epithelium (RPE). Using the Meridian laser attached to Micron III retinal fundus microscope (Phoenix Research labs) we used strong injury (150 mW with 50 msec pulse) to promote retinal gliosis with CNV.
The mouse imaging system (Micron III, Phoenix Research Labs, CA) provided with an image-guided Meridian Merilas 532 nm (Nd:YVO) laser was employed. Using the Diode laser 625-645 nm as an aiming beam the continuous wave, KTP frequency doubled Nd:YVO 532 nm laser was employed to deliver laser injuries in anesthetized mice. Here four (150 mW; 10-μm diameter, 50 msec duration) laser shots equally spaced around the optic nerve were delivered to disrupt the RPE. […] Mice were sacrificed 24 h later and eyes enucleated for tissue sectioning and antibody staining to vimentin and GFAP.

[3] = test system: vimentin (p-Ser38Vimentin)
From the text: Cells were fixed, permeabilized, and prepared for immunohystochemistry (IHC) analysis.

[4] = test system: mCherry-vimentin (soluble vimentin); test: Live cell target detection in BHK-21 cells transfected with pmCherry-vimentin-N-18; type: cell-based, hamster; details: 250 nM, 5 min, early spreading cells
From the text: Soluble vimentin is a broad definition for the biochemical properties of vimentin forms that are extracted in low salt buffers (composed of tetramers, short oligomers, unit length filaments etc.). As such, these soluble vimentin forms are more dynamic structures. We employed a genetic approach to introduce a hybrid mCherry-vimentin construct to express vimentin as a fusion protein with the red fluorescent protein mCherry.
BHK-21 cells were transiently transfected with pmCherry-vimentin-N-18 plasmid (Adgene, MA) using lipofectamine, according to vendor instructions. Cells were trypsinized and replated in glass bottom culture plates (MatTek, MA) for 1 h in complete DMEM medium. […] Cells were immediately imaged live by epifluorescence microscopy, without fixation. […] Asterisks mark the position of the nucleus.

[5] = target: T1, soluble vimentin (Mesocricetus auratus, UniProt P02544); test: Dynamic movement of vimentin structures, live imaging of BHK-21 cells; type: cell-based, hamster; details: 250 nM, 5 min, SF medium, images at 5 sec intervals
T1 construct: BHK-21 cells were plated in glass bottom culture plates for 18 h to promote spreading; endogenous in cells; host or cells: BHK-21

[6] = target: vimentin in corneal myofibroblasts (Mus musculus, UniProt P20152)
Description: Alkali injury to the cornea causes blindness due to the development of corneal fibrosis from overexpression of IF proteins in resident myofibroblasts. This model is extensively employed to investigate corneal fibrosis and role of IF proteins.
Thus, anesthetized mice were injured with alkali by application of 0.15N NaOH for 1 min to the cornea, eyes was extensively and the corneal epithelium gently removed. During the process of wound healing the resident keratocytes become activated into wound fibroblasts and subsequently into myofibroblasts to overexpress both vimentin and desmin, the two type III IFs in the cornea. Thus, heightened expression of these IF targets compared to uninjured corneas, the latter expressing very low levels of vimentin and no desmin, provided the rationale to compare uninjured mice. […] Mice were sacrificed after 1 h, eyes enucleated and cryosections were obtained.

[7] = target: T2, vimentin (Muller glial filaments) (Mus musculus, UniProt P20152); test: In vivo delivery of probe to non injured mice, retina cryosections; details: 1 μM intraperitoneal, eyes enucleated after 24 h, FITC channel
T2 construct: from tissue; host or cells: mouse retina (in vivo, cryosections)
From the text: Cryosections of the eye were subjected to fixation and subsequently stained with anti-vimentin antibody (V9) to mark Muller glial filaments.

[8] = target: T3, vimentin associated with mitochondria (Mesocricetus auratus, UniProt P02544); test: Co-staining with MitoTracker dye in live BHK-21 cells; type: cell-based, hamster; details: 250 nM, 5 mins, serum-free medium
T3 construct: endogenous in cells; host or cells: BHK-21
Description: BHK-21 cells were plated overnight and prior to staining placed in serum-free medium. […] Cells were washed and directly imaged live at dual wavelengths.

[9] = test system: human vimentin-cherry hybrid; test: Time-lapse imaging of BHK-21 cells expressing polymerized mCherry-vimentin; type: cell-based, hamster; details: 250 nM, 5 minutes, serum-free medium, BHK-21 cells with mCherry-vimentin, replated 18 h
Description: Transfection of human vimentin-cherry hybrid plasmid into fibroblasts and examination of polymerized vimentin structures under live cell imaging experiments identify numerous vimentin filaments that show some common, and yet, other distinct staining from the WFA-Verde-labeled structures. BHK-21 cells were transiently transfected with pmCherry-Vimentin-N-18 plasmid (Adgene, MA) using lipofectamine. Cells were cultured to establish the expression of plasmid and then trypsinzed and replated in glass culture plates for 18 h. […] Images at the starting point (T1), mid-point (T2) and at end of 3 minutes (T3).

[10] = target: T4, soluble vimentin species bound to motile mitochondrial species (Mesocricetus auratus, UniProt P02544); test: Motility quantification of WFA-Verde-labeled particles in BHK-21 cells (FIJI/Image J); type: cell-based, hamster; details: 250 nM, images at 5 sec intervals
T4 construct: BHK-21 cells were plated in glass bottom culture plates for 18 h to promote spreading; endogenous in cells; host or cells: BHK-21
T4 sequence (P02544 2-465 limits assumed): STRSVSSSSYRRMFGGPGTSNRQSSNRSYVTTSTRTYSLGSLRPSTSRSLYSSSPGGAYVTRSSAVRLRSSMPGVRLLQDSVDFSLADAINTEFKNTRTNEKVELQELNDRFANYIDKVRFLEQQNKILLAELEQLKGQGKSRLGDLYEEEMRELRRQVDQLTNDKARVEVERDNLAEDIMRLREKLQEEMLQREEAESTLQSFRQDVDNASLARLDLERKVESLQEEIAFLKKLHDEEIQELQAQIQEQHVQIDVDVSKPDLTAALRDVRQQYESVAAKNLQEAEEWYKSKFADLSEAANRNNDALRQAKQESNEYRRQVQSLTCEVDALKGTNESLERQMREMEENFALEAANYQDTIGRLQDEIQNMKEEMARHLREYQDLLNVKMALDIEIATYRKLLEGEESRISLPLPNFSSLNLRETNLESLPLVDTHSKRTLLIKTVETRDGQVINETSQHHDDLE

vimentin in corneal myofibroblasts, sequence (P20152 2-466 limits assumed): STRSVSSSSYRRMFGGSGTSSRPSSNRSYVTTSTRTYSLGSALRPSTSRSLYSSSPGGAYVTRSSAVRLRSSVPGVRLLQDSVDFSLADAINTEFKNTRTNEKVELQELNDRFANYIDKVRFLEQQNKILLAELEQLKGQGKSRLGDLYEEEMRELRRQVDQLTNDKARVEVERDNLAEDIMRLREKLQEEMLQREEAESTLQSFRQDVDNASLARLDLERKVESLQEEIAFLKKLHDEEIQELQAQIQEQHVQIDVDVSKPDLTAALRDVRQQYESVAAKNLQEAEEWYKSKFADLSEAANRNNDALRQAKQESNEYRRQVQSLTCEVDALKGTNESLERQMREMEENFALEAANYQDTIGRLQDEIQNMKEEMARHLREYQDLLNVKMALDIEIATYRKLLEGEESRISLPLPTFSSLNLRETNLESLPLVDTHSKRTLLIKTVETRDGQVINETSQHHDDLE
human vimentin-cherry hybrid, sequence (P08670 2-466 limits assumed): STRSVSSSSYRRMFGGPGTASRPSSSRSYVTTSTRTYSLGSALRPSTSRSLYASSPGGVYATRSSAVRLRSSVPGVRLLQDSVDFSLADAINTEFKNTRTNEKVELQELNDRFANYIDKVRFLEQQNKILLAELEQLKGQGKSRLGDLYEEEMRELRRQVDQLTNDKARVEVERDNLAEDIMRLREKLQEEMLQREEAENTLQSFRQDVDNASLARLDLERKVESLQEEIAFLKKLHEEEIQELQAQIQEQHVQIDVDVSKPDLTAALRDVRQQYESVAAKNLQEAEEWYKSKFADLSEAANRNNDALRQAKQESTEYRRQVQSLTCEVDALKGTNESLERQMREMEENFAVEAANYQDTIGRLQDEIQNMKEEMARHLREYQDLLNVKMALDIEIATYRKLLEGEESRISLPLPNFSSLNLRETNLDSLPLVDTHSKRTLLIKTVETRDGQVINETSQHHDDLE
mCherry-vimentin (soluble vimentin), sequence (P08670 2-466 limits assumed): as above
T2 sequence (P20152 2-466 limits assumed): as the sequence (P20152 2-466 limits assumed) above
T3 sequence (P02544 2-465 limits assumed): as the sequence (P02544 2-465 limits assumed) above
T1 sequence (P02544 2-465 limits assumed): as above

| speed of WFA-Verde labeled dot-like structure [5] [μm/sec] | metabolic conversion in vivo ([6]; mouse, in vivo, ip) | time to reach the target organ after systemic delivery ([6]; mouse, in vivo, ip) [h] | overlap of probe-stained vimentin structures with MitoTracker dye [8] | rate of movement of majority of motile WFA-Verde-labeled particles [10] [micrometer/second] | Compound | effect on movement of filaments ([1]; time-lapse every 5 seconds) | labeling of Muller glia at laser lesion [2] | labeling of vimentin structures in cell cytoplasm ([3]; 3.5 μM, 1 h, rabbit corneal fibroblast cells) | co-localization of probe with p-Ser38Vimentin ([3]; 3.5 μM, 1 h, rabbit corneal fibroblast cells, fixed, anti-pSer38Vimentin antibody) | effect on cytoskeleton ([3]; short exposure to higher dose (3.5 μM, 1 h), well spread cells) | co-localization with Vim-Cherry [4] | overlap between vimentin antibody staining and probe binding ([6]; alkali injured corneas, majority of labeled cells) | probe staining of corneas from injured eyes ([6]; alkali injured mice, day 14, intraperitoneal, sacrificed after 1 h) | probe staining of non-injured corneas ([6]; non-injured mice, intraperitoneal, sacrificed after 1 h, corneal stroma) | incorporation of probe into vimentin in non-gliotic retina [7] | staining of vimentin structures at low dose [9] | overlap of WFA-Verde and MitoTracker staining under nocodazole [1] |
| --- | --- | --- | --- | --- | --- | --- | --- | --- | --- | --- | --- | --- | --- | --- | --- | --- | --- |
| – | – | – | – | – | COC(=O)Nc1nc2ccc(C(=O)c3cccs3)cc2[nH]1 [Nocodazole, nocodazole, reference compound] | causes filaments to be arrested in movements | – | – | – | – | – | – | – | – | – | – | – |
| – | – | – | – | – | CC1=C(COC(=O)CNC(=O)CCCCCNC(=O)COc2ccc(C3=[N+]4C(=Cc5ccc(-c6cccs6)n5[B-]4(F)F)C=C3)cc2)C(=O)OC(C(C)C2CCC3C4CC5OC56C(O)C=CC(=O)C6(C)C4CCC23C)C1 (stereo not drawn) [WFA-Rosa, Withaferin A-BODIPY-TR-X] | – | showed a similar pattern illuminating Muller glia | – | – | – | – | – | – | – | – | – | – |
| ~0.5 | likely also not metabolically converted | ≤ 1 | extensive overlap | ~0.01 | Withaferin A-BODIPY-FL [WFA-Verde] | – | labeled the Muller glia extensively | does label both soluble and vimentin structures throughout the cell cytoplasm | extensive co-localization | did not dramatically alter the cytoskeleton | shows co-localization with Vim-Cherry | extensive overlap | abundance of WFA-Verde binding to corneal myofibroblasts | very low level of background staining | minimal incorporation | does not stain to all vimentin structures | extensive overlap |
